Measured values published in patent US4875922A, “Pyrimidine derivatives” (Imperial Chemical Industries PLC, priority 1986, dated 1989).

Key:
Barley = assay: Whole plant screen for plant growth regulator activity, barley (BR); type: in vivo, Barley (Atem); conditions: BR, 4000 ppm (4 kg/ha), visual score after 2-6 weeks; for T = Tillering or side shooting: * = decrease in tillering
Experimental: (§1) Compounds 1 to 3 in Table 1 were tested for plant growth regulator activity against five species for various growth effects relevant to plant growth regulation.
(§2) The plant species used in this screen are presented in Table II with the leaf stage at which they were sprayed. Each chemical was applied at 4000 ppm (4 kg/ha in a 1000 l/ha field volume) using a tracksprayer and a SS8004E (Teejet) nozzle.
(§3) After spray the plants were grown in a glasshouse with 25° C. day/22° C. night temperatures and supplementary lighting was supplied when necessary (from mercury vapour lamps), to provide a 16 hour photoperiod. The exception to this were the temperate cereals, wheat and barley which were grown in 16° C. day/13° C. night temperatures.
(§4) After 2-6 weeks in the glasshouse, depending on the time of year, the plants were visually assessed for morphological characteristics. Formulation blanks were used as controls to assess the plants.
(§5) Additional compounds in Table I were tested for plant growth regulator activity using the method of Example 60 except that Tomato was included in the test as an additional species. Tomato, Ailsa Craig, was grown in a single 3 inch pot in peat and treated at the 2 to 21/2 leaves growth stage. The results were presented in Table IV in which Tomato is indicated by the code TO and the Key is otherwise as for Table III.

Wheat = assay: Whole plant screen for plant growth regulator activity, wheat (WW); type: in vivo, Wheat (Timmo); conditions: WW, 4000 ppm (4 kg/ha), visual score after 2-6 weeks; for T = Tillering or side shooting: * = decrease in tillering
Experimental: as §1, §2, §3, §4, §5

Rice [1] = assay: Whole plant screen for plant growth regulator activity, rice (RC); type: in vivo, Rice (Ishikari); conditions: 4000 ppm (4 kg/ha), visual score after 2-6 weeks; for T = Tillering or side shooting: * = decrease in tillering
Experimental: as §1, §2, §3, §4, §5

Maize = assay: Whole plant screen for plant growth regulator activity, maize (MZ); type: in vivo, Maize (Earliking); conditions: 4000 ppm (4 kg/ha), visual score after 2-6 weeks
Experimental: as §1, §2, §3
After 2-6 weeks in the glasshouse, depending on the time of year, the plants were visually assessed for morphological characteristics. Formulation blanks were used as controls to assess the plants. […]

Tomato = assay: Whole plant screen for plant growth regulator activity, tomato (TO); type: in vivo, Tomato (Ailsa Craig); conditions: 4000 ppm (4 kg/ha), visual score after 2-6 weeks
Experimental: as §2, §3, §4, §5
An astrisk (*) after a score under "T" (tillering) indicated a decrease in tillering.

Rice [2] = assay: Intermediate Retardant Test, rice; type: in vivo, Rice (Ishikari); conditions: Oryza sativa, 672 h, overall spray, approximately 28 days, Table VI, read-out: Percentage Reduction in Height of Rice (Compared to formulation blank)
Source text: (§6) Three species are involved in this test RICE, SPRING-BARLEY and APPLES. The variety and growth stages at spray are outlined in Table V. Compounds were applied at 500 ppm and 2000 ppm respectively (0.5 kg and 2 kg/ha^-1 at a field volume of 1000 l/ha^-1) as an overall spray except in the case of certain tests on APPLES. This gives a foliar and root component in the test, i.e., this test will detect the activity of both root and foliar acting compounds. The intermediate retardant test on APPLES of which the results are given in Table IX was different, in that a foliar (only) spray at 2000 ppm was compared with a root drench, also at 2000 ppm. The rice was grown in 4" `paddy` pots, i.e., the roots and bottom of the stems are immersed in water under conditions corresponding to those in paddy fields. Spring barley and apples were grown in 4" pots. The plants were assessed for height to top-most ligule at approximately 28 days after treatment for spring barley and rice and for height to apex at approximately 28 days after the treatment for apples. In each case the result for the 500 ppm and 2000 ppm test for each compound is compared to the height of the formulation blank in that test, presented as a percentage reduction in height compared to the formulation blank.
(§7) The prior art compound was compared with compounds of the present invention in side-by-side comparisons using the Intermediate Retardant Test described in Example 62, and the results are given in Tables X to XII where `A` is the prior art compound, 2-methyl-1-isopropyl-1-(pyrimidin-5-yl)-propan-1-ol).

Spring Barley = assay: Intermediate Retardant Test, spring barley; type: in vivo, Spring Barley (Atem/kym); conditions: Hordeum vulgare, 672 h, overall spray, approximately 28 days, Table VII, read-out: Percentage Reduction in Height of Spring Barley (Compared to formulation blank)
Source text: as §6, §7

Apples = assay: Intermediate Retardant Test, apples, foliar spray compared with root drench; type: in vivo, Apples (Red Delicious); conditions: 672 h, approximately 28 days, Table IX, read-out: Percentage Reduction in Height of Apples (Compared to formulation blank); for percent reduction in plant height at 2000 ppm: 2000 ppm (Foliar); for percent reduction in plant height at 2000 µg/mL: soil, 2000 pmm (Root), root drench
Source text: as §6, §7

Apple = assay: Whole plant screen for plant growth regulator activity, apple (AP); type: in vivo, Apple (Red Delicious); conditions: 4000 ppm (4 kg/ha), visual score after 2-6 weeks
Experimental: as §1, §2, §3, §4, §5

SMILES	G = Greening effect (Barley)	I = Interligular or internodal length reduction (Barley)	R = Retardation (Barley)	I = Interligular or internodal length reduction (Wheat)	R = Retardation (Wheat)	T = Tillering or side shooting (Wheat)	I = Interligular or internodal length reduction (Rice [1])	R = Retardation (Rice [1])	I = Interligular or internodal length reduction (Tomato)	R = Retardation (Tomato)	Percent reduction in rice height vs formulation blank at 500 ppm (Rice [2])	Percent reduction in rice height vs formulation blank at 2000 ppm (Rice [2])	percent reduction in plant height at 500 ppm (Spring Barley)	percent reduction in plant height at 2000 ppm (Spring Barley)	percent reduction in plant height at 2000 ppm (Apples)	percent reduction in plant height at 2000 µg/mL (Apples)	T = Tillering or side shooting (Barley)	G = Greening effect (Apple)	I = Interligular or internodal length reduction (Apple)	R = Retardation (Apple)	further results
CCC(C)CCC(O)(c1cncnc1)C(C)C (stereo not drawn) [Compound 6, 2-Methyl-1-(3-methylpentyl)-1-(pyrimidin-5-yl)propan-1-ol]	1 (10-30%)	3 (61-100%)	2 (31-60%)	3 (61-100%)	3 (61-100%)	1 (10-30%)	2 (31-60%)	2 (31-60%)	2 (31-60%)	2 (31-60%)	26%	50%	22%	57%	18.8%	72.1%	–	–	–	–	G = Greening effect (Maize): 1 (10-30%); I = Interligular or internodal length reduction (Maize): 2 (31-60%); R = Retardation (Maize): 2 (31-60%); G = Greening effect (Tomato): 2 (31-60%)
CC(C)C(O)(C#CCCCCl)c1cncnc1 (stereo not drawn) [Compound 8, 2-Methyl-1-(5-chloropen-1-yne)-1-(pyrimidin-5-yl)-propan-1-ol]	2 (31-60%)	2 (31-60%)	3 (61-100%)	3 (61-100%)	3 (61-100%)	3 (61-100%)	–	–	3 (61-100%)	3 (61-100%)	43%	54%	31%	63%	6%	49.3%	1 (10-30%)	2 (31-60%)	3 (61-100%)	3 (61-100%)	G = Greening effect (Wheat): 2 (31-60%); G = Greening effect (Maize): 1 (10-30%); I = Interligular or internodal length reduction (Maize): 3 (61-100%); R = Retardation (Maize): 3 (61-100%); T = Tillering or side shooting (Maize; * = decrease in tillering): 1 (10-30%); G = Greening effect (Tomato): 2 (31-60%)
CC(C)CCC#CC(O)(c1cncnc1)C(C)C (stereo not drawn) [Compound 12, 2-Methyl-1-(5-methylhex-1-yne)-1-(pyrimidin-5-yl)-propan-1-ol]	2 (31-60%)	3 (61-100%)	2 (31-60%)	2 (31-60%)	2 (31-60%)	1 (10-30%)	2 (31-60%)	2 (31-60%)	–	–	5%	8%	3%	19%	2%	58%	3 (61-100%)	1 (10-30%)	3 (61-100%)	2 (31-60%)	G = Greening effect (Wheat): 1 (10-30%); G = Greening effect (Rice [1]): 1 (10-30%); T = Tillering or side shooting (Rice [1]): 1 (10-30%); G = Greening effect (Tomato): 1 (10-30%)
CC(C)CCC(O)(c1cncnc1)C(C)C (stereo not drawn) [Compound 13, 2-Methyl-1-(3-methylbutyl)-1-(pyrimidin-5-yl)-propan-1-ol]	2 (31-60%)	3 (61-100%)	2 (31-60%)	3 (61-100%)	2 (31-60%)	1 (10-30%)	2 (31-60%)	2 (31-60%)	2 (31-60%)	2 (31-60%)	8%	9%	2%	11%	7%	70%	2 (31-60%)	2 (31-60%)	3 (61-100%)	3 (61-100%)	G = Greening effect (Rice [1]): 1 (10-30%)
CC(C)CCCC(O)(c1cncnc1)C(C)(C)C (stereo not drawn) [Compound 17, 2,2-Dimethyl-1-(4-methylpentyl)-1-(pyrimidin-5-yl)-propan-1-ol]	2 (31-60%)	3 (61-100%)	2 (31-60%)	3 (61-100%)	2 (31-60%)	2 (31-60%)	2 (31-60%)	2 (31-60%)	1 (10-30%)	1 (10-30%)	7%	10%	2%	28%	17%	66%	2 (31-60%)	1 (10-30%)	3 (61-100%)	3 (61-100%)	G = Greening effect (Wheat): 2 (31-60%); G = Greening effect (Rice [1]): 1 (10-30%); T = Tillering or side shooting (Rice [1]): 1 (10-30%); G = Greening effect (Tomato): 1 (10-30%)
CC(C)C#CC(O)(c1cncnc1)C(C)(C)C (stereo not drawn) [Compound 18, 2,2-Dimethyl-1-(3-methylbut-1-yne)-1-(pyrimdin-5-yl)-propan-1-ol]	2 (31-60%)	3 (61-100%)	2 (31-60%)	3 (61-100%)	2 (31-60%)	2 (31-60%)	3 (61-100%)	3 (61-100%)	3 (61-100%)	3 (61-100%)	13%	15%	17%	55%	0%	69%	3 (61-100%)	2 (31-60%)	3 (61-100%)	3 (61-100%)	G = Greening effect (Rice [1]): 1 (10-30%)
